Common to all, as to format: cell-based, human
Experiment [1] concerns MIA pancreas. As to the kind of experiment: MTT growth inhibition assay, 72 h. Particulars: for fold more active than CLB: MIA pancreas cell line; for GI50: MTT, 72 h.
Experiment [2] concerns ADDP ovarian (cisplatin-resistant A2780 clone). Briefly: MTT growth inhibition assay, 72 h. As to conditions: for GI50: MTT, 72 h; for fold more active than cisplatin: ADDP ovarian cell line. Background: Tetrazolium assays rely on reduction of a dye to a coloured formazan, in cell work by metabolically active cells.
For experiment [3], the system named is panel of cell lines. As to the kind of experiment: MTT growth inhibition assay, 72 h, over the cell line panel. As to conditions: average over all cell lines tested; read-out: Average GI50 Values.
Experiment [4] relates to HT29 colon. As to the kind of experiment: MTT growth inhibition assay, 72 h. As to conditions: for GI50: MTT, 72 h.
The subject of experiment [5] is MCF-7 breast. Briefly: MTT growth inhibition assay, 72 h. As to conditions: MTT, 72 h.
Experiment [6] has as its system H460 lung. As to the kind of experiment: MTT growth inhibition assay, 72 h.
Experiment [7] has as its system U87 glioblastoma. Briefly: MTT growth inhibition assay, 72 h.
The test system of experiment [8] is A2780 ovarian. As to the kind of experiment: MTT growth inhibition assay, 72 h.
Experiment [9] deals with SJ-G2 glioblastoma. Briefly: MTT growth inhibition assay, 72 h.
For experiment [10], the system named is BE2-C neuroblastoma. As to the kind of experiment: MTT growth inhibition assay, 72 h.
The subject of experiment [11] is Du145 prostate. As to the kind of experiment: MTT growth inhibition assay, 72 h. Particulars: for GI50: MTT, 72 h.
Experiment [12] relates to A431 skin. As to the kind of experiment: MTT growth inhibition assay, 72 h.
In experiment [13] the test system is HT29 colon cells. Briefly: ROS detection assay (DCFH-DA fluorescence). As to conditions: compounds at GI50 concentration, TBHP and NAC 20 μM. How it is done:
HT29 colon cells were stained by DCFH-DA and then treated with the compounds at each specific GI50 concentration. Upon ROS production, the DCFH-DA produced […], a fluorescent product. The measured fluorescence was, therefore, proportional to the produced ROS. […] 56CLB at 24 h reported 395 RFU, 437 RFU at 48 h, and 558 RFU at 72 h (Table 6, Figure 14 and Figure S42), respectively, showing a significant production of ROS in comparison to control cells. 5CLB at 24 h produced 337 RFU, 324 RFU at 48 h, and 376 RFU at 72 h (Table 6, Figure 14 and Figure S42), respectively.
To investigate for the presence of ROS in treated cells, DCFDA/H2DCFDA-cellular ROS Assay Kit (Abcam, Cambridge, MA, USA) was used, as described. A total of 25,000 cells/mL of HT29 cells in DMEM were seeded in 96-well plates. Cells were washed with 1X kit buffer, then stained with 25 μM 2’,7’-dichlorofluorescein diacetate (DCFH-DA) and incubated for 45 min. DCFH-DA was then removed, and cells were then re-washed with 1X kit buffer, after which phenol red free media was added. Cells were then treated with GI50 drug concentration for each complex. The plates were directly scanned to measure fluorescence (relative fluorescence units (RFU)) at different time points using the Glo-Max®-Multimode microplate reader (Promega Corporation, Alexandra, VIC, Australia) at an excitation/emission of 485/535 nm. To generate the positive control (20 μM tert-butyl hydroperoxide (TBHP)), cells were washed with 1X kit buffer, and stained with DCFDA (25 μM) for 45 min. DCFDA was then removed and TBHP was added in phenol red free media. The plate was scanned to measure the RFU at different time points as mentioned above. The same method applies for the negative control treated with 20 μM N-acetylcysteine (NAC).

Experiment [14] deals with non-tumor-derived MCF10A breast line. As to the kind of experiment: MTT growth inhibition assay, 72 h.

Each structure is given as a SMILES string. Several values for one entry are separate records, joined by “and”; a condition that tells them apart may be missing. Identical values can stand only once. Some results are limits rather than exact numbers.

These results are taken from article PMC9499463, “Potent Chlorambucil-Platinum(IV) Prodrugs” (International Journal of Molecular Sciences, 2022).

`O=C1[O][Pt]2([NH][C@@H]3CCCC[C@H]3[NH]2)[O]C1=O` (relative stereo) [Oxaliplatin, trans-L-(1R,2R-diaminocyclohexane) oxalatoplatinum(II), reference compound]: in experiment [1], the “fold more active than CLB” value is given as 44 fold. In addition, the GI50 (as a rule, the concentration that inhibits growth by half) turned out to be 900 ± 0.2 nM in experiment [1]; 800 ± 0.1 nM in experiment [2]; 1463 ± 0.32 nM in experiment [3]; 900 ± 0.2 nM in [4]; 500 ± 0.1 nM in experiment [5]; 1600 ± 0.1 nM in experiment [6]. Further, the 50% growth inhibitory concentration (GI50) was 1800 ± 0.2 nM in experiment [7]; 160 ± 0.1 nM in [8]; 3000 ± 1.2 nM in experiment [9]; 900 ± 0.2 nM in experiment [10]; 2900 ± 0.4 nM in [11]; 4100 ± 0.5 nM in [12].

In the case of `Cc1cc2cccnc2c2ncccc12.N[C@H]1CCCC[C@@H]1N.[Cl][Pt][Cl]` [5MESS, [Pt^II(5-methyl-1,10-phenanthroline)(1S,2S-diaminocyclohexane)]Cl2], the GI50 in [1] is 48 ± 0.002 nM; in experiment [2], 34 ± 0.0023 nM; in experiment [3], 117 ± 0.01 nM; in experiment [4], 33 ± 0.0038 nM; in experiment [5] it was 200 ± 0.012 nM; in experiment [6], 41 ± 0.005 nM. For the same compound, the GI50 in experiment [7] stood at 320 ± 0.026 nM; in experiment [8], 61 ± 0.01 nM; in [9], 220 ± 0.01 nM; in experiment [10], 270 ± 0.038 nM; in [14], 30 ± 0.0018 nM; in [11] it was 22 ± 0.0027 nM. The GI50 in experiment [12] was 120 ± 0.025 nM. In experiment [2], the “fold more active than cisplatin” value was 800 fold. Moreover, the “ROS Production” value in experiment [13] (24 h) turned out to be 204 ± 4 RFU; in experiment [13] (48 h) it was 205 ± 3 RFU; in experiment [13] (72 h), 188 ± 3 RFU.

As to `Cc1c(C)c2cccnc2c2ncccc12.N[C@H]1CCCC[C@@H]1N.[Cl][Pt][Cl]` [56MESS, [Pt^II(5,6-dimethyl-1,10-phenanthroline)(1S,2S-diaminocyclohexane)]Cl2], the “fold more active than CLB” value in [1] and in experiment [4] (HT29 colon cell line) was around 4000 fold in each case. In addition, the GI50 in [1] is 13 ± 0.002 nM; in [2] it was 13 ± 0.0022 nM; in experiment [3], 40 nM and 36 nM; in experiment [4], 10 ± 0.0016 nM; in experiment [5], 93 ± 0.044 nM; in [6], 21 ± 0.0019 nM. In addition, the 50% growth inhibitory concentration (GI50) in [7] came to 35 ± 0.0064 nM; in experiment [8], 76 ± 0.057 nM; in experiment [9], 66 ± 0.022 nM; in experiment [10], 59 ± 0.0041 nM; in experiment [14], 16 ± 0.0012 nM; in experiment [11], 4.6 ± 0.00039 nM. In [12], this compound displayed a GI50 of 29 ± 0.001 nM. The “fold more active than cisplatin” value in [2] is reported as “more than 2000 fold”. The “ROS Production” value was determined as 240 ± 5 RFU in experiment [13] (24 h), 218 ± 3 RFU in experiment [13] (48 h) and 255 ± 4 RFU in experiment [13] (72 h). The “fold increase in potency compared to CLB” value in experiment [11] (Du145 prostate cell line) amounted to 6000 fold.

Take `N.N.O=C([O-])C1(C(=O)[O-])CCC1.[Pt+2]` [Carboplatin, cis-diammine(1,1-cyclobutanedicarboxylato) platinum(II), reference compound]: the concentration for 50% growth inhibition (GI50) in [1] was above 50000 nM; in [2] it was above 50000 nM; in [3], 32200 nM; in experiment [4], above 50000 nM; in [5], above 50000 nM; in experiment [6], 14000 nM. The GI50 is above 50000 nM in experiment [7]; 9200 ± 2.9 nM in experiment [8]; 5700 ± 0.2 nM in experiment [9]; 19000 nM in experiment [10]; above 50000 nM in [14]; 15000 nM in [11]. This compound had a GI50 in experiment [12] of 24000 nM.

Regarding `N.N.[Cl][Pt][Cl]` [Cisplatin, cis-diamminedichloroplatinum(II), reference compound], the “fold more active than CLB” value in experiment [1] was found to be 5 fold. The GI50 in experiment [1] stood at 7500 ± 1.3 nM; in experiment [2], 28000 nM; in experiment [3], 5842 ± 0.61 nM; in [4], 11300 nM; in experiment [5] it was 6500 ± 0.8 nM; in experiment [6] it was 900 ± 0.2 nM. Also, the GI50 was found to be 3800 ± 1.1 nM in experiment [7]; 1000 ± 0.1 nM in experiment [8]; 400 ± 0.1 nM in [9]; 1900 ± 0.2 nM in experiment [10]; 5200 ± 0.52 nM in experiment [14]; 1200 ± 0.1 nM in [11]. Growth in experiment [12] was halved (GI50) at 2400 ± 0.3 nM. The “ROS Production” value is 214 ± 9 RFU in [13] (24 h), 214 ± 9 RFU in [13] (48 h) and 200 ± 9 RFU in experiment [13] (72 h).

As to `CC(=O)N[C@@H](CS)C(=O)O` [NAC, N-acetylcysteine, reference compound], the “ROS Production” value in experiment [13] (24 h) was determined as 71 ± 2 RFU; in [13] (48 h), 85 ± 6 RFU; in experiment [13] (72 h), 91 ± 5 RFU.

For `N[C@H]1CCCC[C@@H]1N.[Cl][Pt][Cl].c1cnc2c(c1)ccc1cccnc12` [PHENSS, [Pt^II(1,10-phenanthroline)(1S,2S-diaminocyclohexane)]Cl2], the GI50 in [1] was 200 ± 0.057 nM; in [2] it was 190 ± 0.047 nM; in [3], 434 ± 0.11 nM; in [4], 160 ± 0.045 nM; in experiment [5], 1500 ± 0.5 nM; in [6] it was 360 ± 0.035 nM. Moreover, the GI50 in experiment [7] stood at 980 ± 0.27 nM; in [8] it was 230 ± 0.03 nM; in experiment [9], 330 ± 0.066 nM; in experiment [10], 380 ± 0.046 nM; in [14] it was 300 ± 0.058 nM; in experiment [11], 100 ± 0.038 nM. Further, the GI50 in experiment [12] is 480 ± 0.17 nM. Besides, in experiment [2], the “fold more active than cisplatin” value came out at 150 fold. For the same compound, the “ROS Production” value is on record as 174 ± 2 RFU in [13] (24 h), 172 ± 9 RFU in experiment [13] (48 h) and 176 ± 7 RFU in experiment [13] (72 h).

As for `CC(C)(C)OO` [TBHP, tert-butyl hydroperoxide, reference compound], the “ROS Production” value in experiment [13] (24 h) is 514 RFU and 514 ± 3 RFU; in experiment [13] (48 h), 336 RFU and 336 ± 2 RFU; in experiment [13] (72 h), 332 RFU and 332 ± 5 RFU.
